Measurements: ChEMBL document CHEMBL4808208, “Hepatoselective Dihydroquinolizinone Bis-acids for HBsAg mRNA Degradation” (ACS Med Chem Lett, 2021)
pIC50: −log10 of the molar value. Several values for one entry are separate records, joined by “and”; a condition that tells them apart may be missing. Identical values can stand only once.

Tests used:
[1] = biological target: T1, Cytochrome P450 2C8 (Homo sapiens, UniProt P10632); test: Inhibition of CYP2C8 in human liver microsomes using paclitaxel as substrate preincubated for 5 mins followed by NADPH addition by LC-MS/MS analysis; type: ADME
T1 sequence (P10632 whole entry): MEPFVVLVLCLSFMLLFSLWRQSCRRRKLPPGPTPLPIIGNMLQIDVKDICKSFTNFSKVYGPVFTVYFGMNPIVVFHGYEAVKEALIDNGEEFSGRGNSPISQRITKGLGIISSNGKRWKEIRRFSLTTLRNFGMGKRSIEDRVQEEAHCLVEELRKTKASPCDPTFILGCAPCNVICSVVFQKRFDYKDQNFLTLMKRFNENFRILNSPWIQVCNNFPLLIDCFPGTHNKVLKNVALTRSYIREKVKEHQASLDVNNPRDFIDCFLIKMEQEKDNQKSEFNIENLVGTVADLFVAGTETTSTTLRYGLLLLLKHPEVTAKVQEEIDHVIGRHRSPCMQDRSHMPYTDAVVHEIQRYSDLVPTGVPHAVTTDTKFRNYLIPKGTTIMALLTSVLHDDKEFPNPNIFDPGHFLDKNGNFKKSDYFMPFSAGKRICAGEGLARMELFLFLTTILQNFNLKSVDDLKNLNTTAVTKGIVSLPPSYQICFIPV

[2] = Apparent permeability of the compound across apical to basolateral side in human Caco-2 cells at 10 uM incubated for 1 hr; type: ADME, cell-based
[3] = Drug concentration in CD-1 mouse liver at 8 mg/kg, po measured after 8 hrs by LC-MS/MS analysis; type: ADME, organism-based; conditions: read-out: Ct
[4] = biological target: T2, Cytochrome P450 3A4 (Homo sapiens, UniProt P08684); test: Inhibition of CYP3A4 in human liver microsomes using midazolam as substrate preincubated for 5 mins followed by NADPH addition by LC-MS/MS analysis; type: ADME
T2 sequence (P08684 whole entry): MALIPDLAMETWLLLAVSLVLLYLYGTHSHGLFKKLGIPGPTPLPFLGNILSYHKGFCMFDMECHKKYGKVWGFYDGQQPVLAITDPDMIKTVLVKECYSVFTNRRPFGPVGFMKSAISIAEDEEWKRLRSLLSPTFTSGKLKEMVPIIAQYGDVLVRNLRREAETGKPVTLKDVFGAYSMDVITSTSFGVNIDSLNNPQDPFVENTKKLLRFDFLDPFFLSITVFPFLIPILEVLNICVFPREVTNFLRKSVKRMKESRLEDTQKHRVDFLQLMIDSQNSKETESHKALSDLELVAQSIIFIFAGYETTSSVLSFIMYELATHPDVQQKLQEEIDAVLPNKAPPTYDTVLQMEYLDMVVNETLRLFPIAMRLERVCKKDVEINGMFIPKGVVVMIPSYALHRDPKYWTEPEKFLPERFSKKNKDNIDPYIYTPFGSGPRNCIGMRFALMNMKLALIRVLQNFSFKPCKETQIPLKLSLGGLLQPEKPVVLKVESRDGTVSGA

[5] = biological target: T3, Cytochrome P450 2B6 (Homo sapiens, UniProt P20813); test: Inhibition of CYP2B6 in human liver microsomes using bupropion as substrate preincubated for 5 mins followed by NADPH addition by LC-MS/MS analysis; type: ADME
T3 sequence (P20813 whole entry): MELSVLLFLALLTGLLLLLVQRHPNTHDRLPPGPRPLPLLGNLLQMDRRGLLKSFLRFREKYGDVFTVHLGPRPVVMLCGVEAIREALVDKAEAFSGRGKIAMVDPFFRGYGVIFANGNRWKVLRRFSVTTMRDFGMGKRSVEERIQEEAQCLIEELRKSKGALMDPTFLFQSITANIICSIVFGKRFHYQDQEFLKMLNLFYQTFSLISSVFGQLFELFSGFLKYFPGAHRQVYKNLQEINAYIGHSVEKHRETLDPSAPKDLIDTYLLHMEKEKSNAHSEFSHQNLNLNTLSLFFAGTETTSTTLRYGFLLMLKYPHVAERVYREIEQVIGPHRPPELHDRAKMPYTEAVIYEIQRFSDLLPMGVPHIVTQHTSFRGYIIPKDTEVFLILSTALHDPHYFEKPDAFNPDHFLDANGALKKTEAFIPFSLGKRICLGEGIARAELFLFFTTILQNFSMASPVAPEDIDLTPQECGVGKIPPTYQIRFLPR

[6] = biological target: Cytochrome P450 2C19 (Homo sapiens, UniProt P33261); test: Inhibition of CYP2C19 in human liver microsomes using mephenytoin as substrate preincubated for 5 mins followed by NADPH addition by LC-MS/MS analysis; type: ADME
Cytochrome P450 2C19, sequence (P33261 whole entry): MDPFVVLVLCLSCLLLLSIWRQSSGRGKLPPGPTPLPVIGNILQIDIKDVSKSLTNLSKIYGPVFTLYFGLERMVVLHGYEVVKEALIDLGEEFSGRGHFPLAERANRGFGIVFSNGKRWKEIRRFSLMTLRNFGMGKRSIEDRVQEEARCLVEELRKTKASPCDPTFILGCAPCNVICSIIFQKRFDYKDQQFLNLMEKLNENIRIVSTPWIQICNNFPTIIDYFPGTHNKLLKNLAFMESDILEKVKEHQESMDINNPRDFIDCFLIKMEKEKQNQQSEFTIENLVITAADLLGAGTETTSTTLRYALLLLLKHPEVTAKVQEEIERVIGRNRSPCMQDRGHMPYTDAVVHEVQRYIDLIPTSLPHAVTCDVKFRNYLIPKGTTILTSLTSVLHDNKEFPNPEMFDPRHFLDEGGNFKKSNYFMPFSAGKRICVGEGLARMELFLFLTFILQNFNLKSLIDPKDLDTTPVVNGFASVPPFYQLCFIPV

[7] = Volume of distribution at steady state in CD-1 mouse at 3 mg/kg, iv measured for 24 hrs by LC-MS/MS analysis; type: ADME, organism-based; conditions: in vivo, read-out: Vdss
[8] = biological target: T2, Cytochrome P450 3A4; test: Inhibition of CYP3A4 in human liver microsomes using testosterone as substrate preincubated for 5 mins followed by NADPH addition by LC-MS/MS analysis; type: ADME
[9] = 1-Octanol/saturated PBS buffer distribution coefficient, logD of the compound incubated for 1 hr by LC-MS/MS analysis; type: physicochemical
[10] = Ratio of Cmax in liver to plasma in CD-1 mouse at 8 mg/kg, po by LC-MS/MS analysis; type: ADME, organism-based
[11] = biological target: T4, Cytochrome P450 1A2 (Homo sapiens, UniProt P05177); test: Inhibition of CYP1A2 in human liver microsomes using phenacetin as substrate preincubated for 5 mins followed by NADPH addition by LC-MS/MS analysis; type: ADME
T4 sequence (P05177 whole entry): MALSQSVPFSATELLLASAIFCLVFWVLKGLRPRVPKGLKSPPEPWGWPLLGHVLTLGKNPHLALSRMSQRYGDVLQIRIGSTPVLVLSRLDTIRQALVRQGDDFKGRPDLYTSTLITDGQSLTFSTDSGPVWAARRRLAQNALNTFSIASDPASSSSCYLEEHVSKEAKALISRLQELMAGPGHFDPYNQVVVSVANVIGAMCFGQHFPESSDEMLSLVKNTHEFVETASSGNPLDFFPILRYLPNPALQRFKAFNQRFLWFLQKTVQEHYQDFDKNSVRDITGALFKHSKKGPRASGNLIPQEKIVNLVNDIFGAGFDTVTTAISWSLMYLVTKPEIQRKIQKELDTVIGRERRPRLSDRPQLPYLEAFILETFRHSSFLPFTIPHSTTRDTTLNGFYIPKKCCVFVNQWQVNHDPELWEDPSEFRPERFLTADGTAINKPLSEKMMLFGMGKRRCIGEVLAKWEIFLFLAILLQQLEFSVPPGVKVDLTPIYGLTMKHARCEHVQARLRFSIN

[12] = Half life in CD-1 mouse plasma at 3 mg/kg, iv measured for 24 hrs by LC-MS/MS analysis; type: ADME, organism-based

- pIC50 [1]: < 5.00
- Papp A→B at 1 h, 10 µM [2]: 0.39 ×10⁻⁶ cm/s
- concentration at 8 h [3]: 63 ng/mL and 140 nM
- pIC50 [4]: < 5.00
- pIC50 [5]: < 5.00
- pIC50 [6]: < 5.00
- Vd [7]: 3.26 L/kg
- pIC50 [8]: < 5.00
- logD at 1 h [9]: -0.65
- Kp [10]: 20.7
- pIC50 [11]: < 5.00
- half-life [12]: 1.48 h
SMILES: COc1cc2c(cc1OCCCCCCC(=O)O)C[C@@H](C(C)C)n1cc(C(=O)O)c(=O)cc1-2
